{"source": "paper PMC10354055", "about": "“An optimized Nurr1 agonist provides disease-modifying effects in Parkinson’s disease models” (Nature Communications, 2023)", "key": {"Nurr1-LBD point mutants [1]": {"biological_target": "T1, Nurr1-LBD point mutants (Mus musculus, UniProt Q06219)", "T1 construct": "expressed in transfected cells; host or cells: SK-N-BE(2)C", "T1 sequence (Q06219 whole entry, change not shown, the tested form may be a part)": "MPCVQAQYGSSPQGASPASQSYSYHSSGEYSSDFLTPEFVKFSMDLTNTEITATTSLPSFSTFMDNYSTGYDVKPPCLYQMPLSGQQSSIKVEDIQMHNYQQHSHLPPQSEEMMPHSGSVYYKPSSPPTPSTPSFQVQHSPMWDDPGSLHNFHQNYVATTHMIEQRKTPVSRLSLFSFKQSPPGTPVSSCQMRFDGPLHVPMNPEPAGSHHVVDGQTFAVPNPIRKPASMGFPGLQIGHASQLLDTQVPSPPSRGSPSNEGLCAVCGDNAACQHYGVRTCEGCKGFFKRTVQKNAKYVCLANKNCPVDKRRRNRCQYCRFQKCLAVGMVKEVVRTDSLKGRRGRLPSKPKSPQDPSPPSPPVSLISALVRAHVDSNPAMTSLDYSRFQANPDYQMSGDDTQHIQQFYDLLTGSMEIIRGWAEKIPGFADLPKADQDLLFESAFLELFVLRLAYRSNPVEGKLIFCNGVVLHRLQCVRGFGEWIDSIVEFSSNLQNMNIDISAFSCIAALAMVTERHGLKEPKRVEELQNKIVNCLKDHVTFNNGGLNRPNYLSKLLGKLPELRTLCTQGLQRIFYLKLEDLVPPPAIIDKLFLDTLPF", "test": "Luciferase assay with point-mutants of Nurr1-LBD, SK-N-BE(2)C cells;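 on all read-outs here: Firefly luciferase normalized to beta-galactosidase activity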", "type": "cell-based", "conditions": "Fig. 1g, WT", "description": "(§1) Nurr1 transactivity was normalized to β-galactosidase activity.\n(§2) Nurr1 mutants were generated using the QuikChange ǁ XL site-directed mutagenesis kit (Agilent Technologies) according to the manufacturer’s instruction. Mutagenesis reactions were carried out on the plasmid of mouse Nurr1 cloned into pcDNA3.1 backbone, and then verified by sequencing."}, "Nurr1-LBD point mutants [2]": {"biological_target": "T2, Nurr1-LBD point mutants (Mus musculus, UniProt Q06219, L593A)", "T2 construct": "expressed in transfected cells; host or cells: SK-N-BE(2)C", "T2 sequence (Q06219 whole entry L593A, the tested form may be a part)": "as the sequence (Q06219 whole entry, change not shown, the tested form may be a part) above, with L593A counted along it", "test": "Luciferase assay with point-mutants of Nurr1-LBD, SK-N-BE(2)C cells", "type": "cell-based", "conditions": "Fig. 1g, L593A", "description": "as §1, §2"}, "Nurr1-LBD point mutants [3]": {"biological_target": "T3, Nurr1-LBD point mutants (Mus musculus, UniProt Q06219, A586F)", "T3 construct": "expressed in transfected cells; host or cells: SK-N-BE(2)C", "T3 sequence (Q06219 whole entry A586F, the tested form may be a part)": "as the sequence (Q06219 whole entry, change not shown, the tested form may be a part) above, with A586F counted along it", "test": "Luciferase assay with point-mutants of Nurr1-LBD, SK-N-BE(2)C cells", "type": "cell-based", "conditions": "Fig. 1g, A586F", "description": "as §1, §2"}, "Nurr1-LBD point mutants [4]": {"biological_target": "T4, Nurr1-LBD point mutants (Mus musculus, UniProt Q06219, I588A)", "T4 construct": "expressed in transfected cells; host or cells: SK-N-BE(2)C", "T4 sequence (Q06219 whole entry I588A, the tested form may be a part)": "as the sequence (Q06219 whole entry, change not shown, the tested form may be a part) above, with I588A counted along it", "test": "Luciferase assay with point-mutants of Nurr1-LBD, SK-N-BE(2)C cells", "type": "cell-based", "conditions": "Fig. 1g, I588A", "description": "as §1, §2"}, "Nurr1-LBD point mutants [5]": {"biological_target": "T5, Nurr1-LBD point mutants (Mus musculus, UniProt Q06219, S441A)", "T5 construct": "expressed in transfected cells; host or cells: SK-N-BE(2)C", "T5 sequence (Q06219 whole entry S441A, the tested form may be a part)": "as the sequence (Q06219 whole entry, change not shown, the tested form may be a part) above, with S441A counted along it", "test": "Luciferase assay with point-mutants of Nurr1-LBD, SK-N-BE(2)C cells", "type": "cell-based", "conditions": "Fig. 1g, S441A", "description": "as §1, §2"}, "Nurr1-LBD point mutants [6]": {"biological_target": "T6, Nurr1-LBD point mutants (Mus musculus, UniProt Q06219, K590A)", "T6 construct": "expressed in transfected cells; host or cells: SK-N-BE(2)C", "T6 sequence (Q06219 whole entry K590A, the tested form may be a part)": "as the sequence (Q06219 whole entry, change not shown, the tested form may be a part) above, with K590A counted along it", "test": "Luciferase assay with point-mutants of Nurr1-LBD, SK-N-BE(2)C cells", "type": "cell-based", "conditions": "Fig. 1g, K590A", "description": "as §1, §2"}, "Nurr1-LBD point mutants [7]": {"biological_target": "T7, Nurr1-LBD point mutants (Mus musculus, UniProt Q06219, I573A)", "T7 construct": "expressed in transfected cells; host or cells: SK-N-BE(2)C", "T7 sequence (Q06219 whole entry I573A, the tested form may be a part)": "as the sequence (Q06219 whole entry, change not shown, the tested form may be a part) above, with I573A counted along it", "test": "Luciferase assay with point-mutants of Nurr1-LBD, SK-N-BE(2)C cells", "type": "cell-based", "conditions": "Fig. 1g, I573A", "description": "as §1, §2"}, "[8]": {"system": "AAV-αSyn-induced male mice", "test": "Western blot of human-αSyn in SNpc, AAV-αSyn-injected mice", "type": "in vivo, mouse", "description": "(§3) Experiments were confirmed by duplicate measurements of the same sample. Quantification of immunoreactive bands was performed using ImageJ software (NIH, Bethesda, MD, USA) and expressed as a relative ratio against β-actin.\nAdeno-associated viruses (AAVs) expressing GFP only or αSyn (wild-type or A53T) were kindly provided by Dr. Yoon Seong Kim from the University of Central Florida. Recombinant AAV vectors were produced using modified pAAV-IRES-hrGFP (Agilent) to express wild-type and mutant human αSyn under control of the CMV promoter. Viral particles (AAV2) were produced at the University of Iowa Viral Vector Core according to standard operating procedures (https://medicine.uiowa.edu/vectorcore/). Male C57BL/6 mice (8-10 weeks, 25-30 g; Jackson Laboratories) were randomly assigned to 7 groups including empty vector (GFP) + VEH, wild-type αSyn (αSyn^WT) + VEH, mutant αSyn (αSyn^A53T) + VEH, αSyn^WT + CQ, αSyn^A53T + CQ, αSyn^WT + 4A7C-301 and αSyn^A53T + 4A7C-301 (n = 8 per group). AAV vectors were delivered into the substantia nigra unilaterally by stereotaxic surgery. […] CQ (40 mg/kg/day) or 4A7C-301 (5 mg/kg/day) administration was started 4 weeks after AAV vector injections and continued for […] before sacrifice at 8 weeks after surgery."}, "Iba-1+ microglia": {"system": "Iba-1+ microglia", "test": "Primary rat VM neuron-glia co-culture, Iba-1+ microglia (ICC)", "type": "cell-based", "conditions": "for Iba-1+ cells (% of control): Fig. 2g", "description": "Primary rat VM neuron-glia co-culture was prepared from E14 rat embryos (Fisher 344; Charles River)[33]. […] After blocking with 10% normal donkey serum (NDS) and 0.1% Triton X-100 solution for 1 h at room temperature, cells were incubated with primary antibodies against TH (1:1,000; Pel Freez, P40401) and Iba-1 (1:500; Abcam, ab5076) in 1% NDS and 0.1% Triton X-100 solution for overnight at 4 °C. Alexa Fluor 568- or Alexa Fluor 488-conjugated anti-rabbit or anti-goat secondary antibodies (1:500; Invitrogen) were incubated following the primary antibody incubation, and then cover glasses were mounted using FluoShield^TM mounting media (Sigma-Aldrich). Fluorescence images were taken using a KEYENCE microscope (BZ-X800; KEYENCE)."}, "N27-A cells": {"system": "N27-A cells", "test": "Autophagic flux, Western blot LC3B and p62, N27-A cells", "type": "cell-based, rat", "conditions": "for Relative LC3B-II experession (normalized to β-actin): individual replicates; for autophagic flux (in words): N27-A", "description": "as §3\nThe band intensities were quantified using ImageJ and normalized against β-actin."}, "full-length Nurr1": {"biological_target": "T8, full-length Nurr1 (Mus musculus, UniProt Q06219)", "T8 construct": "Luciferase assays using Nurr1-LBD (c) or full-length Nurr1 (d) in SK-N-BE(2)C cells; expressed in transfected cells; host or cells: SK-N-BE(2)C (human neuroblastoma); MN9D (murine dopaminergic)", "T8 sequence (Q06219 whole entry, the tested form may be a part)": "as the sequence (Q06219 whole entry, change not shown, the tested form may be a part) above", "test": "Luciferase reporter assay, full-length Nurr1, MN9D cells", "type": "cell-based", "description": "as §1"}}, "note": "“And” between values parts separate entries of the source, which are not always exact repeats. Equal values may be shown once."}
{"molecule": "CCN1CCN(c2cc(N3CCN(CC)CC3)nc(NCCNc3ccnc4cc(Cl)ccc34)n2)CC1", "note": "[4A7C-301, N^1-(4,6-bis(4-ethylpiperazin-1-yl)pyrimidin-2-yl)-N^2-(7-chloroquinolin-4-yl)ethane-1,2-diamine]", "values": [{"measurement": "Luciferase activity (fold)", "setting": "Nurr1-LBD point mutants [1]", "value": "18.0755 fold and 17.4184 fold and 17.5507 fold and 18.6728 fold"}, {"measurement": "Luciferase activity (fold)", "setting": "Nurr1-LBD point mutants [2]", "value": "5.7 fold and 5.711 fold and 5.709 fold and 5.928 fold"}, {"measurement": "Luciferase activity (fold)", "setting": "Nurr1-LBD point mutants [3]", "value": "16.9378 fold and 18.2618 fold and 17.9787 fold and 16.7737 fold"}, {"measurement": "Luciferase activity (fold)", "setting": "Nurr1-LBD point mutants [4]", "value": "2.735 fold and 2.747 fold and 2.797 fold and 2.7361 fold"}, {"measurement": "Luciferase activity (fold)", "setting": "Nurr1-LBD point mutants [5]", "value": "8.067 fold and 8.586 fold and 8.69 fold and 8.14 fold"}, {"measurement": "Luciferase activity (fold)", "setting": "Nurr1-LBD point mutants [6]", "value": "9.662 fold and 10.9664 fold and 10.3366 fold and 9.703 fold"}, {"measurement": "Luciferase activity (fold)", "setting": "Nurr1-LBD point mutants [7]", "value": "1.906 fold and 2.068 fold and 2.015 fold and 1.962 fold"}, {"measurement": "accumulation of αSyn (in words)", "setting": "[8]", "value": "significantly diminished"}, {"measurement": "Iba-1+ cells (% of control)", "setting": "Iba-1+ microglia; 4A7C-301 only, 50 nM, 0.05 µM", "value": "77.52 % of control and 86.67 % of control and 96.15 % of control"}, {"measurement": "Iba-1+ cells (% of control)", "setting": "Iba-1+ microglia; 4A7C-301 only, 500 nM, 0.5 µM", "value": "69.77 % of control and 67.62 % of control and 86.92 % of control"}, {"measurement": "Iba-1+ cells (% of control)", "setting": "Iba-1+ microglia; + LPS, 5 nM, 0.005 µM", "value": "240.31 % of control and 188.57 % of control and 210 % of control"}, {"measurement": "Iba-1+ cells (% of control)", "setting": "Iba-1+ microglia; + LPS, 50 nM, 0.05 µM", "value": "160.47 % of control and 128.57 % of control and 139.23 % of control"}, {"measurement": "Iba-1+ cells (% of control)", "setting": "Iba-1+ microglia; + LPS, 500 nM, 0.5 µM", "value": "102.4 % of control and 80.95 % of control and 100.31 % of control"}, {"measurement": "Iba-1+ cells (% of control)", "setting": "Iba-1+ microglia; + LPS, 1000 nM, 1 µM", "value": "86.82 % of control and 87.62 % of control and 103.69 % of control"}, {"measurement": "Iba-1+ cells (% of control)", "setting": "Iba-1+ microglia; + MPP+, 5 nM, 0.005 µM", "value": "114.73 % of control and 125.71 % of control and 144.62 % of control"}, {"measurement": "Iba-1+ cells (% of control)", "setting": "Iba-1+ microglia; + MPP+, 50 nM, 0.05 µM", "value": "96.12 % of control and 105.71 % of control and 78.46 % of control"}, {"measurement": "Iba-1+ cells (% of control)", "setting": "Iba-1+ microglia; + MPP+, 500 nM, 0.5 µM", "value": "64.34 % of control and 63.81 % of control and 42.31 % of control"}, {"measurement": "Iba-1+ cells (% of control)", "setting": "Iba-1+ microglia; + MPP+, 1000 nM, 1 µM", "value": "42.64 % of control and 72.38 % of control and 48.46 % of control"}, {"measurement": "concentration of optimal suppression of microglial activation", "setting": "Iba-1+ microglia; against LPS", "value": 500, "unit": "nM"}, {"measurement": "concentration of optimal suppression, times lower than CQ", "setting": "Iba-1+ microglia; against LPS", "value": 40, "unit": "times"}, {"measurement": "Relative LC3B-II experession (normalized to β-actin)", "setting": "N27-A cells; Figure 3f, w/ MPP+, 0h", "value": "0.779 and 0.690 and 0.799"}, {"measurement": "Relative LC3B-II experession (normalized to β-actin)", "setting": "N27-A cells; Figure 3f, w/ MPP+, 4h", "value": "1.160 and 0.971 and 1.153"}, {"measurement": "Relative LC3B-II experession (normalized to β-actin)", "setting": "N27-A cells; Figure 3f, w/o MPP+, 0h", "value": "0.728 and 0.654 and 0.714"}, {"measurement": "Relative LC3B-II experession (normalized to β-actin)", "setting": "N27-A cells; Figure 3f, w/o MPP+, 4h", "value": "0.866 and 0.789 and 0.873"}, {"measurement": "Relative LC3B-II experession (normalized to β-actin)", "setting": "N27-A cells; Figure 3g, w/ MPP+, 0h", "value": "1.116 and 1.094 and 1.285"}, {"measurement": "Relative LC3B-II experession (normalized to β-actin)", "setting": "N27-A cells; Figure 3g, w/ MPP+, 4h", "value": "0.639 and 0.745 and 0.861"}, {"measurement": "Relative LC3B-II experession (normalized to β-actin)", "setting": "N27-A cells; Figure 3g, w/o MPP+, 0h", "value": "1.157 and 1.166 and 1.326"}, {"measurement": "Relative LC3B-II experession (normalized to β-actin)", "setting": "N27-A cells; Figure 3g, w/o MPP+, 4h", "value": "0.499 and 0.504 and 0.579"}, {"measurement": "autophagic flux (in words)", "setting": "N27-A cells; MPP+ 1 mM", "value": "significantly restored autophagy"}, {"measurement": "autophagic flux (in words)", "setting": "N27-A cells; without MPP+", "value": "proceeded"}, {"measurement": "Luciferase activity (fold)", "setting": "full-length Nurr1; Fig. S1e, conc. 1 µM, replicates", "value": "4.17 fold and 4.227 fold and 4.16 fold"}, {"measurement": "Luciferase activity (fold)", "setting": "full-length Nurr1; Fig. S1e, conc. 10 µM, replicates", "value": "4.281 fold and 4.08 fold and 4.219 fold"}, {"measurement": "Luciferase activity (fold)", "setting": "full-length Nurr1; Fig. S1e, conc. 10-1 µM, replicates", "value": "2.744 fold and 2.808 fold and 2.876 fold"}, {"measurement": "Luciferase activity (fold)", "setting": "full-length Nurr1; Fig. S1e, conc. 10-2 µM, replicates", "value": "1.103 fold and 1.099 fold and 1.116 fold"}, {"measurement": "Luciferase activity (fold)", "setting": "full-length Nurr1; Fig. S1e, conc. 10-3 µM, replicates", "value": "1.064 fold and 1.034 fold and 1.025 fold"}, {"measurement": "Luciferase activity (fold)", "setting": "full-length Nurr1; Fig. S3b, 0.001 µM", "value": "1.073 fold and 1.1005 fold and 1.0596 fold"}, {"measurement": "Luciferase activity (fold)", "setting": "full-length Nurr1; Fig. S3b, 0.01 µM", "value": "1.226 fold and 1.227 fold and 1.236 fold"}, {"measurement": "Luciferase activity (fold)", "setting": "full-length Nurr1; Fig. S3b, 0.1 µM", "value": "2.808 fold and 2.776 fold and 2.787 fold"}, {"measurement": "Luciferase activity (fold)", "setting": "full-length Nurr1; Fig. S3b, 1 µM", "value": "4.245 fold and 4.359 fold and 4.273 fold"}, {"measurement": "Luciferase activity (fold)", "setting": "full-length Nurr1; Fig. S3b, 10 µM", "value": "4.295 fold and 4.314 fold and 4.305 fold"}]}
